US6359141B2, “Water soluble prodrugs of azole compounds” (Bristol-Myers Squibb Company, priority 1998, dated 2002)

Tests used:
[1] = Solubility
[2] = Release of parent in human plasma; type: in vitro ADME; conditions: prodrug conversion to bioactive parent
[3] = physchem

| solubility [3] [µg/mL] | Structure (SMILES) | solubility [1] [µg/mL] | Release of Parent in Human Plasma [2] |
| --- | --- | --- | --- |
| – | CCN(CC)Cc1ccc(C(=O)OCO[C@@](Cn2cncn2)(c2ccc(F)cc2F)[C@@H](C)c2nc(-c3ccc(C#N)cc3)cs2)cc1 [Example 1, (2R,3R)-3-[4-(4-cyanophenyl)thiazol-2-yl]-2-(2,4-difluorophenyl)-1-(1H-1,2,4-triazol-1-yl)-2-[[p-(N,N-diethylaminomethyl)benzoyloxy]methoxy]butane] | > 1000 | Yes |
| – | C[C@@H](c1nc(-c2ccc(C#N)cc2)cs1)C(Cn1cncn1)(OP(=O)([O-])[O-])c1ccc(F)cc1F.[Na+].[Na+] (some centres unmarked) [Example 7 of WO 97/28169] | > 1000 | No |
| < 6 | C[C@@H](c1nc(-c2ccc(C#N)cc2)cs1)[C@](O)(Cn1cncn1)c1ccc(F)cc1F [Parent, (2R,3R)-3-[4-(4-cyanophenyl)thiazol-2-yl]-2-(2,4-difluorophenyl)-1-(1H-1,2,4-triazol-1-yl)-butan-2-ol] | – | – |
